Source: patent US5380755A, “Alkyl and alkylbenzyl ethers of substituted hydroquinones” (The Du Pont Merck Pharmaceutical Company, priority 1992, dated 1995)

Assays:
MAO A / MAO B = test: in vitro inhibitory action on types A and B monoamine oxidase in rat brain tissue: A/B selectivity; format: biochemical; settings: ratio MAO A / MAO B, 5-Hydroxytryptamine[14-C] 1.0 mM (MAO A), Phenethylamine[14-C] 200 mM (MAO B)
Excerpt: The compounds of the present invention are useful in the inhibition of monoamine oxidases. […] This test measures the in vitro inhibitory action of the two types A and B monoamine oxidase in rat brain tissue. […] Finally, it is expected that the compounds of the present invention may be useful in treating neurological disorders including memory disorders, cognitive dysfunction, dementia, dementia of the Alzheimer's type, Parkinson's syndrome, depression, hyperactive syndrome, schizophrenia, and changes in temperament.

MAO B = target: T1, MAO B (Rattus norvegicus, UniProt P19643); test: in vitro inhibitory action on type B monoamine oxidase in rat brain tissue (J. Neurochem., 1983, 40, 1534); format: biochemical; settings: 200 mM Phenethylamine[14-C] as substrate
T1 construct: two types A and B monoamine oxidase in rat brain tissue; from tissue; host or cells: rat brain
T1 sequence (P19643 1-520): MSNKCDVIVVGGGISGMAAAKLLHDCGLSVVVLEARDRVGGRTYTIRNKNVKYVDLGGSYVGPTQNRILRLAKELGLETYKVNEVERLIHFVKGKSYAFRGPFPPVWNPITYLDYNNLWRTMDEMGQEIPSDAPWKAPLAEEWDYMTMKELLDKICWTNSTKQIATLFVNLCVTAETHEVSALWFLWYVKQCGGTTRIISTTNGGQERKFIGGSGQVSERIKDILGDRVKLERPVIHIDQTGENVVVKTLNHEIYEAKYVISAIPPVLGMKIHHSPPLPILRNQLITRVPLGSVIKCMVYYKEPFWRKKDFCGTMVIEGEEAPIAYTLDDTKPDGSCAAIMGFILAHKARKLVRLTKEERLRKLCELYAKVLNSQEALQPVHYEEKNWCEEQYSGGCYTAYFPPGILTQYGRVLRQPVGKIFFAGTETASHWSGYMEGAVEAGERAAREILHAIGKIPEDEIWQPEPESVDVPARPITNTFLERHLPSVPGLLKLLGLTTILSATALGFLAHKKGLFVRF
Excerpt: This test measures the in vitro inhibitory action of the two types A and B monoamine oxidase in rat brain tissue.

Structure (SMILES)	A/B (MAO A / MAO B)	IC50 (MAO B) [nM]
C#CCN(C)C(C)COc1ccc(OCc2cccc(Cl)c2)c(C(C)=O)c1 (centres unmarked) [Example 8, N-2-[3'-Acyl-4'-(m-chlorophenylmethyloxy)phenoxy]-1-methylethyl-N-methylpropargylamine]	< 300	3
CNC(C)COc1ccc(OCc2cccc(Cl)c2)c(C(C)=O)c1 (centres unmarked) [Example 19]	–	7000
CC(=O)c1cc(OCc2cccc(Cl)c2)ccc1OCCCO [Example 32]	400	100

Next, values leading:

A/B (MAO A / MAO B)	IC50 (MAO B) [nM]	Structure (SMILES)
> 10000	100	CC(=O)c1cc(OCc2cc(C(F)(F)F)cc(C(F)(F)F)c2)ccc1OCCCC#N [Example 6, 4-{2'-Acetyl-4'-[(3,5-trifluoromethylphenyl)methyloxy]phenoxy}-butyronitrile]
–	> 100000	CCC(=O)c1cc(OCc2ccc(F)cc2)ccc1OCCCC#N [Example 33]
